Non-standard residues stand in square brackets, D forms with d. Residues, ends and D or L forms follow the SMILES beside them. Phe(4-I) = N[C@@H](Cc1ccc(I)cc1)C(=O)O; NMeY = CN[C@@H](Cc1ccc(O)cc1)C(=O)O; Nle = CCCC[C@H](N)C(=O)O; Aib = CC(C)(N)C(=O)O
Columns and labels:
in vitro = assay: in vitro
Experimental: Pooled mouse plasma was prepared and stored at −80° C. prior to use. 396 μL mouse plasma was incubated at 37° C. for 5 minutes in 1.5 mL microcentrifuge tubes. 4 μL of 100 μM test or control compound/peptide was added to each tube and incubated for 0.5, 15, 30, 60, 120, or 240 minutes. An aliquot of 40 μL of each reaction was stopped by the addition of 4 volume of cold acetonitrile containing 200 ng/mL of Setmelanotide as an internal standard (IS). The incubation solution was centrifuged at 3500 rpm for 10 minutes to precipitate protein. The supernatant was used for LC/MS/MS analysis. The natural log peak area ratio (compound peak […] area/internal standard peak area) was plotted against time and the gradient of the line determined.

human MC4R = human MC4R (Homo sapiens, UniProt P32245); assay: Intracellular cAMP levels in live cells, MC3R selectivity relative to MC4R; format: cell-based; conditions: cAMP assays in human MC3R and human MC4R stable cell lines
Chain of human MC4R (P32245 whole entry): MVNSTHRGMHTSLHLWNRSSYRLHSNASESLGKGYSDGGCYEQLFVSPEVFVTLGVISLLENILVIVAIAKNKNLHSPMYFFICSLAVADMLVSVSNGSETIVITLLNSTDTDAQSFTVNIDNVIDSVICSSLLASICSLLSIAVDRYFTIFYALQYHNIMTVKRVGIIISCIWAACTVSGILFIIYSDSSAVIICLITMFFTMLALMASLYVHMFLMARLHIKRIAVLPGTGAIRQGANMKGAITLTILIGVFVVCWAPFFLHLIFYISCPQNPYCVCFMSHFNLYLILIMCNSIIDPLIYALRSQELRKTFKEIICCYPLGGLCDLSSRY

Compound | half-life at 1 µM (in vitro; mouse, plasma) [min] | remaining at 5 min, 1 µM (in vitro; mouse, plasma) [%] | remaining at 0.25 h, 1 µM (in vitro; mouse, plasma) [%] | remaining at 0.5 h, 1 µM (in vitro; mouse, plasma) [%] | remaining at 1 h, 1 µM (in vitro; mouse, plasma) [%] | Mouse Plasma Stability, time point 0 min (in vitro; pooled mouse plasma, 37° C.) [%] | MC3R selectivity (relative to MC4R) (human MC4R) | also measured
CCCC[C@H](NC(=O)[C@@H](NC(=O)[C@@H](N)Cc1ccc(O)cc1)C(C)C)C(=O)N[C@H](C)C(=O)N[C@@H](Cc1c[nH]cn1)C(=O)N[C@@H](Cc1ccccc1)C(=O)N[C@@H](CCCNC(=N)N)C(=O)N[C@H](Cc1c[nH]c2ccccc12)C(=O)N[C@@H](CC(=O)O)C(=O)N[C@@H](CCCNC(=N)N)C(=O)N[C@@H](Cc1ccccc1)C(=O)NCC(=O)O [CTX-1103, Tyr-Val-Nle-D-Ala-His-Phe-Arg-D-Trp-Asp-Arg-Phe-Gly] (H-YV[Nle][dA]HFR[dW]DRFG-OH) | 1.46 | 9.3 | 0.21 | 0.03 | 0.02 | 100 | 229 | 
CC(C)[C@H](NC(=O)[C@@H](N)Cc1ccc(O)cc1)C(=O)N[C@@H](CCC(=O)O)C(=O)NCC(=O)N[C@@H](Cc1c[nH]cn1)C(=O)N[C@@H](Cc1ccccc1)C(=O)N[C@@H](CCCNC(=N)N)C(=O)N[C@H](Cc1c[nH]c2ccccc12)C(=O)N[C@@H](CC(=O)O)C(=O)N[C@@H](CCCNC(=N)N)C(=O)N[C@@H](Cc1ccccc1)C(=O)NCC(N)=O [CTX-1105, Tyr-Val-Glu-Gly-His-Phe-Arg-D-Trp-Asp-Arg-Phe-Gly] (H-YVEGHFR[dW]DRFG-NH2) | 2.38 | 23.4 | 1.51 | 0.3 | 0.27 | 100 | 500 | remaining at 2 h, 1 µM (in vitro; mouse, plasma): 0.12%
CCCC[C@H](NC(=O)[C@@H](NC(=O)[C@@H](N)Cc1ccc(O)cc1)C(C)C)C(=O)N[C@H](C)C(=O)N[C@@H](Cc1c[nH]cn1)C(=O)N[C@@H](Cc1ccccc1)C(=O)N[C@@H](CCCNC(=N)N)C(=O)N[C@H](Cc1c[nH]c2ccccc12)C(=O)N[C@@H](CC(=O)O)C(N)=O [CTX-1108, Tyr-Val-Nle-D-Ala-His-Phe-Arg-D-Trp-Asp] (H-YV[Nle][dA]HFR[dW]D-NH2) | 1.32 | 7.21 | 0.33 | 0.04 | 0.01 | 100 | 79 | 
CCCC[C@H](NC(=O)[C@@H](NC(=O)[C@H](Cc1ccc(O)cc1)NC)C(C)C)C(=O)N[C@H](C)C(=O)N[C@@H](Cc1c[nH]cn1)C(=O)N[C@@H](Cc1ccccc1)C(=O)N[C@@H](CCCNC(=N)N)C(=O)N[C@H](Cc1c[nH]c2ccccc12)C(=O)N[C@@H](CC(=O)O)C(N)=O [CTX-1141, NMe-Tyr-Val-Nle-D-Ala-His-Phe-Arg-D-Trp-Asp] (H-[NMeY]V[Nle][dA]HFR[dW]D-NH2) | > 240 | 106 | 118 | 95 | 91.8 | 100 | 55 | remaining at 2 h, 1 µM (in vitro; mouse, plasma): 108%; remaining at 4 h, 1 µM (in vitro; mouse, plasma): 63.9%
CCCC[C@H](NC(C)=O)C(=O)N[C@H](C)C(=O)N[C@@H](Cc1c[nH]cn1)C(=O)N[C@@H](Cc1ccccc1)C(=O)N[C@@H](CCCNC(=N)N)C(=O)N[C@H](Cc1c[nH]c2ccccc12)C(=O)NCC(N)=O [CTX-1540, Nle-D-Ala-His-Phe-Arg-D-Trp-Gly] (Ac-[Nle][dA]HFR[dW]G-NH2) |  |  |  |  |  |  | 11 | 
CCCC[C@H](NC(C)=O)C(=O)N[C@H](C)C(=O)N[C@@H](Cc1c[nH]cn1)C(=O)N[C@@H](Cc1ccccc1)C(=O)N[C@@H](CCCNC(=N)N)C(=O)N[C@H](Cc1c[nH]c2ccccc12)C(=O)N[C@@H](Cc1ccccc1)C(N)=O [CTX-1541, Nle-D-Ala-His-Phe-Arg-D-Trp-Phe] (Ac-[Nle][dA]HFR[dW]F-NH2) |  |  |  |  |  |  | 9 | 
CCCC[C@H](NC(C)=O)C(=O)N[C@H](C)C(=O)N[C@@H](Cc1c[nH]cn1)C(=O)N[C@@H](Cc1ccccc1)C(=O)N[C@@H](CCCNC(=N)N)C(=O)N[C@H](Cc1c[nH]c2ccccc12)C(=O)N[C@H](Cc1ccccc1)C(N)=O [CTX-1542, Nle-D-Ala-His-Phe-Arg-D-Trp-D-Phe] (Ac-[Nle][dA]HFR[dW][dF]-NH2) |  |  |  |  |  |  | 15 | 
CCCC[C@H](NC(C)=O)C(=O)NC(C)(C)C(=O)N[C@@H](Cc1c[nH]cn1)C(=O)N[C@@H](Cc1ccc(I)cc1)C(=O)N[C@@H](CCCNC(=N)N)C(=O)N[C@H](Cc1c[nH]c2ccccc12)C(=O)NCC(N)=O [CTX-1545, Nle-Aib-His-Phe(4-I)-Arg-D-Trp-Gly] (Ac-[Nle][Aib]H[Phe(4-I)]R[dW]G-NH2) |  |  |  |  |  |  | 14 | 
CSCC[C@H](NC(=O)[C@@H](NC(=O)[C@@H](N)Cc1ccc(O)cc1)C(C)C)C(=O)NCC(=O)N[C@@H](CCCNC(=N)N)C(=O)N[C@@H](Cc1ccccc1)C(=O)N[C@@H](CCCNC(=N)N)C(=O)N[C@H](Cc1c[nH]c2ccccc12)C(=O)N[C@@H](CC(=O)O)C(=O)N[C@@H](CCCNC(=N)N)C(=O)N[C@@H](Cc1ccccc1)C(=O)NCC(=O)O [CTX-1548, Tyr-Val-Met-Gly-Arg-Phe-Arg-D-Trp-Asp-Arg-Phe-Gly] (H-YVMGRFR[dW]DRFG-OH) |  |  |  |  |  |  | 267 | 
CCCC[C@H](NC(=O)[C@@H](NC(=O)[C@@H](N)Cc1ccc(O)cc1)C(C)C)C(=O)NCC(=O)N[C@@H](CCCNC(=N)N)C(=O)N[C@@H](Cc1ccccc1)C(=O)N[C@@H](CCCNC(=N)N)C(=O)N[C@H](Cc1c[nH]c2ccccc12)C(=O)N[C@@H](CC(=O)O)C(=O)N[C@@H](CCCNC(=N)N)C(=O)N[C@@H](Cc1ccccc1)C(=O)NCC(=O)O [CTX-1549, Tyr-Val-Nle-Gly-Arg-Phe-Arg-D-Trp-Asp-Arg-Phe-Gly] (H-YV[Nle]GRFR[dW]DRFG-OH) |  |  |  |  |  |  | 102 | 
CCCC[C@H](NC(=O)[C@@H](NC(=O)[C@@H](N)Cc1ccc(O)cc1)C(C)C)C(=O)N[C@H](C)C(=O)N[C@@H](Cc1c[nH]cn1)C(=O)N[C@@H](Cc1ccc(I)cc1)C(=O)N[C@@H](CCCNC(=N)N)C(=O)N[C@H](Cc1c[nH]c2ccccc12)C(=O)N[C@@H](CC(=O)O)C(=O)N[C@@H](CCCNC(=N)N)C(=O)N[C@@H](Cc1ccccc1)C(=O)NCC(=O)O [CTX-2122, Tyr-Val-Nle-D-Ala-His-Phe(4-I)-Arg-D-Trp-Asp-Arg-Phe-Gly] (H-YV[Nle][dA]H[Phe(4-I)]R[dW]DRFG-OH) |  |  |  |  |  |  | 324 | 
CCN(CC)CCNC(=O)c1ccc(N)cc1 [Procainamide, reference compound] |  |  |  |  |  |  |  | Mouse Plasma Stability, time point 0 min (in vitro; mouse, 1 µM): 100.00; Mouse Plasma Stability, time point 5 min (in vitro; mouse, 1 µM): 101.53; Mouse Plasma Stability, time point 15 min (in vitro; mouse, 1 µM): 109.16; Mouse Plasma Stability, time point 30 min (in vitro; mouse, 1 µM): 103.05; Mouse Plasma Stability, time point 60 min (in vitro; mouse, 1 µM): 104.43; Mouse Plasma Stability, time point 120 min (in vitro; mouse, 120 min, 1 µM): 110.61; Mouse Plasma Stability, time point 240 min (in vitro; mouse, 240 min, 1 µM): 108.17
CCN(CC)CCOC(=O)c1ccc(N)cc1 [Procaine, reference compound] |  |  |  |  |  | 100 |  | half-life at 1 µM (in vitro; mouse, pooled mouse plasma): 3.81 min; Mouse Plasma Stability, time point 5 min (in vitro; pooled mouse plasma, 37° C.): 40.3%; Mouse Plasma Stability, time point 15 min (in vitro; pooled mouse plasma, 37° C., in % (unit assumed)): 8.80; Mouse Plasma Stability, time point 30 min (in vitro; pooled mouse plasma, 37° C.): 2.15%; Mouse Plasma Stability, time point 60 min (in vitro; pooled mouse plasma, 37° C.): 0.44%
